For test [1], the system named is platelet agregation induced by PAF. The experiment in a line: Inhibition of platelet agregation induced by PAF. Type of test: cell-based, New Zealand rabbits. The settings on record: Oryctolagus cuniculus, New Zealand rabbit platelets, agregometer at 57° C., Table I. The method, then: 1) Inhibition of platelet agregation induced by PAF
This experimentation was conducted according to the method of R. KINLOUGH. RATHBONE, J. P. CAZENAVE, M. PACKHAM and F. MUSTARD, Lab. Invest. 48, 98, 1980. In this test, New Zealand rabbits were used (male New Zealand rabbits of an average weight of 5 kg).
The determinations are made on a chrono-log Coultronics agregometer, at […] coupled with a graphic recorder; the results of these determinations (in molecular concentration) are reported on the table I on the central column.

The next test deals with benzodiazepine receptors. The experiment in a line: Inhibition of the binding to benzodiazepine receptors (rat brains). Particulars: rat brains incubated 1 h 30 at 4° C.; 3H-RO-15-4788 and 3H-RO-5-4864 as tracers; Table I; read-out: BDZ receptors (inhibition of the binding to benzodiazepine receptors). The text has this:
2) Inhibition of the binding to benzodiazepine receptors
The interest of the previous experimentation depends on the results obtained in this experimentation: as a compound of the invention has a benzodiazepine like structure, it is important to check whether the specific benzodiazepine activity would not appear at the dose where platelet agregation was inhibited.
Therefore, this experimentation has been conducted according to the method of MOHLER H. and RICHARD J. G. Agonist and antagonist benzodiazepine receptor intereaction in vitro, Nature, vol. 294, 763°-765, 1981.
This experimentation was conducted on rat brains incubated 1 h 30 at 4° C. using ^3 H-RO-15-4788 and ^3 H-RO-5-4864 (NEN) as tracers and […] and RO-5-4864 as reference antagonists.
The results in molecular concentration are reported in the table I, on the right hand column.

Among the data in US5492906A, “Derivatives of thieno-triazolo-diazepine and therapeutic compositions containing them” (Societe de Conseils de Recherches et d'Applications …, priority 1989, dated 1996) are IC50 values, retold here.

For `Cc1nnc2n1-c1sc3c(c1C(c1ccccc1Cl)=NC2)CCN(C(=O)NS(=O)(=O)c1cccnc1)C3` [Example 34, 6-(2-chlorophenyl)-9-(3-pyridylsulfonyl)carbamoyl-7,8,9,10-tetrahydro-1-methyl-4H-pyrido[4',3':4,5]thieno[3,2-f]1,2,4-triazolo[4,3-a]1,4-diazepine], the values for the IC50 (in test [1]; at benzodiazepine receptors) were 100 nM and 40000 nM, respectively.

On to `Cc1nnc2n1-c1sc3c(c1C(c1ccccc1Cl)=NC2)CCN(C(=O)Nc1ccc(F)cc1F)C3` [Example 29, 6-(2-chlorophenyl)-9-(2,4-difluoro)phenylcarbamoyl-7,8,9,10-tetrahydro-1-methyl-4H-pyrido [4',3':4,5]thieno[3,2-f]1,2,4-triazolo[4,3-a]1,4-diazepine], for which the IC50 in test [1] was 58.6 nM; at benzodiazepine receptors it was 220 nM.

As to `Cc1nnc2n1-c1sc3c(c1C(c1ccccc1Cl)=NC2)CCN(C(=O)NCc1ccccc1)C3` [Example 23, 6-(2-chlorophenyl)-9-benzylcarbamoyl-7,8,9,10-tetrahydro-1-methyl-4H-pyrido[4',3':4,5]thieno[3,2-f]1,2,4-triazolo[4,3-a]1,4-diazepine], the values for the IC50 (in test [1]; at benzodiazepine receptors) were 66.8 nM and 1600 nM, respectively.

On to `Cc1nnc2n1-c1sc3c(c1C(c1ccccc1Cl)=NC2)CCN(C(=O)NC(C)C)C3` [Example 2, 6-(2-chlorophenyl)-9-isopropylcarbamoyl-7,8,9,10-tetra-hydro-1-methyl4H-pyrido[4',3':4,5]thieno[3,2-f]1,2,4-triazolo [4,3-a] 1,4-diazepine], for which the IC50 worked out at 23.5 nM in test [1] and 66000 nM on benzodiazepine receptors.

Take `COc1ccc(NC(=O)N2CCc3c(sc4c3C(c3ccccc3Cl)=NCc3nnc(C)n3-4)C2)cc1` [Example 6, 6-(2-chlorophenyl)-9-(4-methoxy)phenylcarbamoyl-7,8,9,10-tetrahydro-1-methyl 4H-pyrido[4',3':4,5]thieno[3,2-f]1,2,4-triazolo[4,3-a]1,4-diazepine]: the IC50 in test [1] came out at 127 nM; at benzodiazepine receptors, 77000 nM.

As to `Cc1nnc2n1-c1sc3c(c1C(c1ccccc1Cl)=NC2)CCN(C(=S)NS(=O)(=O)c1ccco1)C3` [Example 31, 6-(2-chlorophenyl)-9-(2-furylsulfonyl)thiocarbamoyl-7,8,9,10-tetrahydro-1-methyl-4H-pyrido[4',3':4,5]thieno[3,2-f]1,2,4-triazolo[4,3-a]1,4-diazepine], the IC50 is 8.15 nM in test [1] and 615 nM at benzodiazepine receptors.

Regarding `Cc1nnc2n1-c1sc3c(c1C(c1ccccc1Cl)=NC2)CCN(C(=O)NC1CCCCC1)C3` [Example 27, 6-(2-chlorophenyl)-9-cyclohexylcarbamoyl-7,8,9,10-tetrahydro-1-methyl-4H-pyrido[4', 3':4,5]thieno[3,2-f]1,2,4-triazolo[4,3-a]1,4-diazepine], the IC50 in test [1] amounted to 45.2 nM; at benzodiazepine receptors, 2000 nM.

Consider `Cc1nnc2n1-c1sc3c(c1C(c1ccccc1Cl)=NC2)CCN(C(=O)NS(=O)(=O)N1CCOCC1)C3` [Example 36, 6-(2-chlorophenyl)-9-(4-morpholinylsulfonyl)carbamoyl-7,8,9,10-tetrahydro-1-methyl-4H-pyrido[4',3':4,5]thieno[3,2-f]1,2,4-triazolo[4,3-a]1,4-diazepine], for which the IC50 was 6.1 nM in test [1] and 7250 nM at benzodiazepine receptors.

`Cc1nnc2n1-c1sc3c(c1C(c1ccccc1Cl)=NC2)CCN(C(=S)Nc1ccc(C(F)(F)F)cc1)C3` [Example 15, 6-(2-chlorophenyl)-9-(4-trifluoromethyl)phenylthiocarbamoyl-7,8,9,10-tetrahydro-1-methyl 4H-pyrido[4',3':4,5]thieno[3,2-f]1,2,4-triazolo[4,3-a]1,4-diazepine]: the IC50 in test [1] worked out at 220 nM; at benzodiazepine receptors, 1250 nM.

With `Cc1nnc2n1-c1sc3c(c1C(c1ccccc1Cl)=NC2)CCN(C(=S)NC(C)Cc1ccccc1)C3` (stereo not drawn) [Example 19, 6-(2-chlorophenyl)-9-(α-methyl)phenethylthiocarbamoyl-7,8,9,10-tetrahydro-1-methyl 4H-pyrido[4',3':4,5]thieno[3,2-f]1,2,4-triazolo[4,3-a]1,4-diazepine], the IC50 in test [1] came to 42.5 nM; on benzodiazepine receptors it was 360 nM.

On to `COc1cc(NC(=S)N2CCc3c(sc4c3C(c3ccccc3Cl)=NCc3nnc(C)n3-4)C2)cc(OC)c1OC` [Example 9, 6-(2-chlorophenyl)-9-(3,4,5-trimethoxy)phenylthiocarbamoyl-7,8,9,10-tetrahydro-1-methyl 4H-pyrido[4',3':4,5]thieno [3,2-f]1,2,4-triazolo[4,3-a]1,4-diazepine], for which the IC50 came out at 38.7 nM in test [1] and 4500 nM on benzodiazepine receptors.

On to `Cc1nnc2n1-c1sc3c(c1C(c1ccccc1Cl)=NC2)CCN(C(=S)Nc1cccc(C(F)(F)F)c1)C3` [Example 13, 6-(2-chlorophenyl)-9-(3-trifluoromethyl)phenylthiocarbamoyl-7,8,9,10-tetrahydro-1-methyl 4H-pyrido[4',3':4,5]thieno[3,2-f]1,2,4-triazolo[4,3-a]1,4-diazepine], for which the IC50 in test [1] stood at 171 nM; on benzodiazepine receptors it was 6250 nM.

For the compound `Cc1nnc2n1-c1sc3c(c1C(c1ccccc1Cl)=NC2)CCN(C(=S)Nc1ccc(C(C)(C)C)cc1)C3` [Example 11, 6-(2-chlorophenyl)-9-(4-tertbutyl)phenylthiocarbamoyl-4H-pyrido[4',3':4,5]thieno [3,2-f]1,2,4-triazolo[4,3-a]1,4-diazepine], the IC50 in test [1] amounted to 9.44 nM; on benzodiazepine receptors it was 1200 nM.

Regarding `Cc1nnc2n1-c1sc3c(c1C(c1ccccc1Cl)=NC2)CCN(C(=S)Nc1ccc(S(C)(=O)=O)cc1)C3` [Example 21, 6-(2-chlorophenyl)-9-(4-methylsulfonyl)phenylthiocarbamoyl-7,8,9,10-tetrahydro-1-methyl 4H-pyrido[4',3':4,5]thieno[3,2-f]1,2,4-triazolo[4,3-a]1,4-diazepine], the IC50 in test [1] came to 24 nM; on benzodiazepine receptors it was 1100 nM.

For the compound `Cc1nnc2n1-c1sc3c(c1C(c1ccccc1Cl)=NC2)CCN(C(=S)NCC(C)c1ccccc1)C3` (stereo not drawn) [Example 20, 6-(2-chlorophenyl)-9-(β-methyl)phenethylthiocarbamoyl-7,8,9,10-tetrahydro-1-methyl 4H-pyrido[4',3':4,5]thieno[3,2-f]1,2,4-triazolo[4,3-a]1,4-diazepine], the IC50 came out at 6.17 nM in test [1] and 720 nM on benzodiazepine receptors.

As for `Cc1nnc2n1-c1sc3c(c1C(c1ccccc1Cl)=NC2)CCN(C(=O)NS(=O)(=O)c1cccs1)C3` [Example 32, 6-(2-chlorophenyl)-9-(2-thienylsulfonyl)carbamoyl-7,8,9,10-tetrahydro-1-methyl-4H-pyrido[4',5':4,5]thieno[3,2-f]1,2,4-triazolo[4,3-a]1,4-diazepine], the results for the IC50 (in test [1]; on benzodiazepine receptors) were 66.6 nM and 4330 nM, respectively.

`Cc1nnc2n1-c1sc3c(c1C(c1ccccc1Cl)=NC2)CCN(C(=S)NC1CCCCC1)C3` [Example 26, 6-(2-chlorophenyl)-9-cyclohexylthiocarbamoyl-7,8,9,10-tetrahydro-1-methyl-4H-pyrido[4',3':4,5]thieno[3,2-f]1,2,4-triazolo[4,3-a]1,4-diazepine]: the IC50 in test [1] is 53.3 nM; on benzodiazepine receptors it was 4100 nM.

Turning to `C=CCNC(=S)N1CCc2c(sc3c2C(c2ccccc2Cl)=NCc2nnc(C)n2-3)C1` [Example 28, 6-(2-chlorophenyl)-9-allylthiocarbamoyl-7,8,9,10-tetrahydro-1-methyl-4H-pyrido[4',3':4,5]thieno[3,2-f]1,2,4-triazolo[4,3-a]1,4-diazepine], the figures for the IC50 (in test [1]; at benzodiazepine receptors) were 9.05 nM and 140 nM, respectively.

Take `Cc1nnc2n1-c1sc3c(c1C(c1ccccc1Cl)=NC2)CCN(C(=S)NC(C)(C)C)C3` [Example 4, 6-(2-chlorophenyl)-9-tertbutylthiocarbamoyl-7,8,9,10-tetrahydro-1-methyl4H-pyrido[4',3':4,5]theno [3,2-f]1,2,4-triazolo[4,3-a]1,4-diazepine]: the IC50 worked out at 8.82 nM in test [1] and 135 nM on benzodiazepine receptors.

On to `Cc1nnc2n1-c1sc3c(c1C(c1ccccc1Cl)=NC2)CCN(C(=S)Nc1ccc(F)cc1)C3` [Example 16, 6-(2-chlorophenyl)-9-(4-fluoro)phenylthiocarbamoyl-7,8,9,10-tetrahydro-1-methyl 4H-pyrido[4',3':4,5]thieno[3,2-f]1,2,4-triazolo[4,3-a]1,4-diazepine], for which the IC50 stood at 64 nM in test [1] and 700 nM at benzodiazepine receptors.

Consider `Cc1nnc2n1-c1sc3c(c1C(c1ccccc1Cl)=NC2)CCN(C(=S)Nc1cnc2ccccc2c1)C3` [Example 25, 6-(2-chlorophenyl)-9-(3-quinolyl)thiocarbamoyl-7,8,9,10-tetrahydro-1-methyl-4H-pyrido[4',3':4,5]thieno[3,2-f]1,2,4-triazolo[4,3-a]1,4-diazepine], for which the IC50 in test [1] was found to be 182 nM; at benzodiazepine receptors, 350 nM.

For `Cc1nnc2n1-c1sc3c(c1C(c1ccccc1Cl)=NC2)CCN(C(=S)NS(=O)(=O)c1ccnc2ccccc12)C3` [Example 35, 6-(2-chlorophenyl)-9-(4-quinolylsulfonyl)thiocarbamoyl-7,8,9,10-tetrahydro-1-methyl-4H-pyrido[4',3':4,5]thieno [3,2-f]1,2,4-triazolo[4,3-a]1,4-diazepine], the IC50 in test [1] is 34 nM; on benzodiazepine receptors, 2200 nM.
